Drawing on patent US20250066363A1, “Bicyclic DGK Inhibitors” (Incyte Corporation, priority 2023, published 2025), this text covers IC50 for 17 molecules.

Structures are written as SMILES.

One assay addresses DGKα (Homo sapiens (Human), UniProt P23743). Briefly: In vitro DGKα inhibition assay (ADP-Glo). The class given is biochemical. Conditions: first column of Table A; His-tagged human recombinant DGKα 0.1 nM, 50 μM ATP, 20 μM DLG. Here is the method: (§1) The DGKα and DGKζ biochemical reactions were performed using His-tagged human recombinant enzymes (Signal Chem, DGKα, #D21-10BH; DGKζ, #D30-1OH)) and DLG (Dilauroyl-sn-glycerol) lipid substrate (Signal Chem, #D430-59). ADP-Glo assay was performed using ADP-Glo™ kinase Assay kit (Promega, #V9104). The reactions were carried out in assay buffer containing 40 mM Tris, pH 7.5, 0.1% CHAPS, 0.1% Prionex, 40 mM NaCl, 5 mM MgCl2, 1 mM CaCl2, and 1 mM DTT. DGKα reactions contained 0.1 nM DGKα, 50 μM ATP, and 20 μM DLG. And DGKζ reactions contained 0.4 nM DGKζ, 30 μM ATP, and 20 μM DLG.
(§2) For compound inhibition studies, 40 nL test compound in DMSO was added to wells of white polystyrene plates in 384-well (Greiner, #784075) or 1536-well format (Greiner, #782075). Compounds were added with top concentration of 2 mM with 11 point, 3-fold dilution series. Enzyme solution (contains 2× DGK enzyme concentration in 1× assay buffer) was added to the plate in 2 μL/well volume, followed by 2 μL/well of substrate solution (contains 2× concentration of ATP and DLG substrate in 1× assay buffer). Plates were then centrifuged for 1 min at 1200 RPM and sealed or lidded. For 4 μL reaction volume, test compounds were therefore diluted 100× to final top concentration of 20 μM. After 90 minute incubation, reactions were quenched by addition of 2 μL/well Promega ADP-Glo Reagent, followed by centrifugation and lidding. After 60 min incubation, 2 μL/well Promega Kinase Detection Reagent was added, plates centrifuged, and incubated for 30 min. Plates were then read using Luminescence method on BMG PHERAstar FSX plate reader. Percent inhibition was calculated and IC50s were determined using 4-parameter fit in Genedata Screener. Labcyte Echo acoustic dispenser was used for compound addition, and Formulatrix Tempest liquid handler was used for all reagent dispenses.

Another assay concerns the target DGKζ (Homo sapiens (Human), UniProt Q13574). Briefly: In vitro DGKζ inhibition assay (ADP-Glo). Conditions: second column of Table A, head printed DGKα, presumably DGKζ; His-tagged human recombinant DGKζ 0.4 nM, 30 μM ATP, 20 μM DLG. The class given is biochemical. Here is the method: as §1, §2

Sequence of DGKζ (Q13574 whole entry): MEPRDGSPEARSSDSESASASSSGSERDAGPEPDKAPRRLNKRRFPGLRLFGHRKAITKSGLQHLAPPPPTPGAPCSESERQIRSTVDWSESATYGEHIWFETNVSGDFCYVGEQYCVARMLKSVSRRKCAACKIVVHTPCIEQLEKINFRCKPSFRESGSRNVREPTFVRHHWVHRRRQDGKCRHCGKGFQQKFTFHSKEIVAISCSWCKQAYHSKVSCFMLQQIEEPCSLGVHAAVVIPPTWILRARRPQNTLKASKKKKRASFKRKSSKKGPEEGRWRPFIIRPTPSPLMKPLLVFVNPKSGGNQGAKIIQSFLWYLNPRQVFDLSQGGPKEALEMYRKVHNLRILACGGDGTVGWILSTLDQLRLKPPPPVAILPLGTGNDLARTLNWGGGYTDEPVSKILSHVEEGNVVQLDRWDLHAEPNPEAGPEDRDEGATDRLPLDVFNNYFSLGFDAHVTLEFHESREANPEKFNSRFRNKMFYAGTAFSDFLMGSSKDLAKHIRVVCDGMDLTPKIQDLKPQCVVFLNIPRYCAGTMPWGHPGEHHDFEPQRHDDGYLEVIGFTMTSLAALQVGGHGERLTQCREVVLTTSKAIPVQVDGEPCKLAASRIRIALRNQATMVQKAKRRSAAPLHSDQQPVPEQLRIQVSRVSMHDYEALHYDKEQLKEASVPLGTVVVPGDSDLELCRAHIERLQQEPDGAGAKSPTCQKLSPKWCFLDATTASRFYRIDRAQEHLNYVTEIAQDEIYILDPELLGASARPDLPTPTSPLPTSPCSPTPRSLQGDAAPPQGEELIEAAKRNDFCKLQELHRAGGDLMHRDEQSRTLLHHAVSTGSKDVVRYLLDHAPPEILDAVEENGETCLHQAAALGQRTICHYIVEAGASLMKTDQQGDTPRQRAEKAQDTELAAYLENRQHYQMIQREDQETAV
Sequence of DGKα (P23743 whole entry): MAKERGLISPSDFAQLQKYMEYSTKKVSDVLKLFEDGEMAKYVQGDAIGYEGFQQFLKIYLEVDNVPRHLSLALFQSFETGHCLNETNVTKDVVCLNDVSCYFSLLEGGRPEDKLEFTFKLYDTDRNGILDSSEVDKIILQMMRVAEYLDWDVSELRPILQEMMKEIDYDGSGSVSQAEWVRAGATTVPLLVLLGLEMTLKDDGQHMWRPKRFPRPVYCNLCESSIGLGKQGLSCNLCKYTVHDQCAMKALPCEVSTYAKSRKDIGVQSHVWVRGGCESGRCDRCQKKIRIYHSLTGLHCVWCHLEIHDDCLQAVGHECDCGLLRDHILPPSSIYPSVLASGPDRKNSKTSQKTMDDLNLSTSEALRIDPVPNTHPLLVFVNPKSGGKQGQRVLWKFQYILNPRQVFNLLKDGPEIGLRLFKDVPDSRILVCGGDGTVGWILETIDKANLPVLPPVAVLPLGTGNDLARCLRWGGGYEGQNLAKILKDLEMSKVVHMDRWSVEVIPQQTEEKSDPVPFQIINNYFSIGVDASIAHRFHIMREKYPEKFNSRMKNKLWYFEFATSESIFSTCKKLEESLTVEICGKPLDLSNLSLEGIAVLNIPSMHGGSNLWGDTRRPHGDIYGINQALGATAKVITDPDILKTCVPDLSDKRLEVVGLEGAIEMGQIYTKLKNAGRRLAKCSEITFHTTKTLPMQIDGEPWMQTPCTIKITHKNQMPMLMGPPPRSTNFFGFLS

With `C[C@@H]1CN(c2nc(=O)[nH]c3c2ncn3C[C@@H]2CCCO2)[C@@H](C)CN1C(c1ccc(F)cc1)c1ccc(F)cc1` [Example 9, 6-((2S,5R)-4-(Bis(4-fluorophenyl)methyl)-2,5-dimethylpiperazin-1-yl)-9-(((S)-tetrahydrofuran-2-yl)methyl)-3,9-dihydro-2H-purin-2-one], the IC50 at DGKα and on DGKζ was at most 100 nM throughout.

In the case of `CC(C)CC(c1ccc(Cl)cc1)N1C[C@H](C)N(c2nc(=O)n(C)c3c2ncn3C[C@H]2OCC[C@@H]2O)C[C@H]1C` (single isomer, unassigned) [Example 19], the IC50 on DGKα and on DGKζ was at most 10 nM in each case.

For the molecule `CC(C)[C@H](c1ccc(Cl)cc1)N1C[C@H](C)N(c2nc(=O)n(C)c3c2ncn3CC2(O)CCCC2)C[C@H]1C` [Example 58, 6-((2S,5R)-4-((R)-1-(4-chlorophenyl)-2-methylpropyl)-2,5-dimethylpiperazin-1-yl)-9-((1-hydroxycyclopentyl)methyl)-3-methyl-3,9-dihydro-2H-purin-2-one], the half-inhibitory concentration (IC50) at DGKα and on DGKζ was at most 10 nM throughout.

As to `Cc1nc2c(N3C[C@@H](C)N(C(c4ccc(C(F)(F)F)cc4)C4CC(F)(F)C4)C[C@@H]3C)nc(=O)n(C)c2n1C[C@H]1OCC[C@@H]1O` (single isomer, unassigned) [Example 34], the IC50 on DGKα and at DGKζ was at most 10 nM throughout.

With `CC(C)CC(c1ccc(Cl)cc1)N1C[C@H](C)N(c2nc(=O)n(C)c3c2nnn3C[C@@H]2CCCO2)C[C@H]1C` (single isomer, unassigned) [Example 17], the 50% inhibitory concentration (IC50) at DGKα and at DGKζ was at most 10 nM in each case.

For `Cc1nc2c(N3C[C@@H](C)N(C(c4ccc(C(F)(F)F)cc4)C4CC(F)(F)C4)C[C@@H]3C)nc(=O)[nH]c2n1C[C@@H]1CCCO1` (single isomer, unassigned) [Example 14], the IC50 is at most 10 nM on DGKα and at most 100 nM at DGKζ.

Regarding `CC[C@@H]1CN(c2nc(=O)n(C)c3c2nc(C)n3C[C@@H]2CCCO2)[C@@H](C)CN1[C@H](CC)c1ccc(C(F)(F)F)cc1` [Example 29, 6-((2S,5R)-5-ethyl-2-methyl-4-((R)-1-(4-(trifluoromethyl)phenyl)propyl)piperazin-1-yl)-3,8-dimethyl-9-(((S)-tetrahydrofuran-2-yl)methyl)-3,9-dihydro-2H-purin-2-one], the half-maximal inhibitory concentration (IC50) at DGKα and on DGKζ was at most 10 nM throughout.

For `Cc1nc2c(N3C[C@@H](C)N([C@@H](c4ccc(C(F)F)c(F)c4)C(C)C)C[C@@H]3C)nc(=O)n(C)c2n1C[C@@H]1CCCO1` [Example 56, 6-((2S,5R)-4-((R)-1-(4-(difluoromethyl)-3-fluorophenyl)-2-methylpropyl)-2,5-dimethylpiperazin-1-yl)-3,8-dimethyl-9-(((S)-tetrahydrofuran-2-yl)methyl)-3,9-dihydro-2H-purin-2-one], the IC50 at DGKα and on DGKζ was at most 10 nM each time.

Regarding `C[C@@H]1CN(c2nc(=O)n(C)c3c2ccn3C[C@@H]2CCCO2)[C@@H](C)CN1C(c1ccc(F)cc1)c1ccc(F)cc1` [Example 6, 4-((2S,5R)-4-(Bis(4-fluorophenyl)methyl)-2,5-dimethylpiperazin-1-yl)-1-methyl-7-(((S)-tetrahydrofuran-2-yl)methyl)-1,7-dihydro-2H-pyrrolo[2,3-d]pyrimidin-2-one], the IC50 at DGKα is at most 10 nM; at DGKζ it was at most 100 nM.

`C[C@@H]1CN(c2nc(=O)n(C)c3c2ncn3CC2(O)CCC2)[C@@H](C)CN1C(c1ccc(Cl)cc1)C1CC(F)(F)C1` (stereo partly drawn) [Example 67, 6-((2S,5R)-4-((4-Chlorophenyl)(3,3-difluorocyclobutyl)methyl)-2,5-dimethylpiperazin-1-yl)-9-((1-hydroxycyclobutyl)methyl)-3-methyl-3,9-dihydro-2H-purin-2-one]: the IC50 at DGKα and on DGKζ was at most 10 nM in each case.

Regarding `C[C@@H]1CN(c2nc(=O)n(C)c3c2nnn3C[C@H]2CCCO2)[C@@H](C)CN1C(c1ccc(C(F)(F)F)cc1)C1CC(F)(F)C1` (stereo partly drawn) [Example 43, 7-((2S,5R)-4-((3,3-Difluorocyclobutyl)(4-(trifluoromethyl)phenyl)methyl)-2,5-dimethylpiperazin-1-yl)-4-methyl-3-(((R)-tetrahydrofuran-2-yl)methyl)-3,4-dihydro-5H-[1,2,3]triazolo[4,5-d]pyrimidin-5-one], the IC50 at DGKα and on DGKζ was at most 10 nM in each case.

`Cc1nc2c(N3C[C@@H](C)N(C(c4ccc(Cl)c(F)c4)C4CC(F)(F)C4)C[C@@H]3C)nc(=O)n(C)c2n1C[C@@H]1CCCO1` (stereo partly drawn) [Example 39, 6-((2S,5R)-4-((4-Chloro-3-fluorophenyl)(3,3-difluorocyclobutyl)methyl)-2,5-dimethylpiperazin-1-yl)-3,8-dimethyl-9-(((S)-tetrahydrofuran-2-yl)methyl)-3,9-dihydro-2H-purin-2-one]: the IC50 on DGKα and on DGKζ was at most 10 nM each time.

As for `CC[C@@H]1CN(c2nc(=O)n(C)c3c2nc(C)n3C[C@@H]2CCCO2)[C@@H](C)CN1[C@H](CC)c1ccc(Cl)cc1` [Example 25, 6-((2S,5R)-4-((R)-1-(4-chlorophenyl)propyl)-5-ethyl-2-methylpiperazin-1-yl)-3,8-dimethyl-9-(((S)-tetrahydrofuran-2-yl)methyl)-3,9-dihydro-2H-purin-2-one], the IC50 on DGKα and at DGKζ was at most 10 nM each time.

On to `CC(C)[C@@H](c1ccc(Cl)cc1)N1C[C@H](C)N(c2nc(=O)n(C)c3c2ncn3CC2(O)CCCC2)C[C@H]1C` [Example 57, 6-((2S,5R)-4-((S)-1-(4-Chlorophenyl)-2-methylpropyl)-2,5-dimethylpiperazin-1-yl)-9-((1-hydroxycyclopentyl)methyl)-3-methyl-3,9-dihydro-2H-purin-2-on], for which the 50% inhibitory concentration (IC50) on DGKα and at DGKζ was at most 10 nM each time.

Take `CC[C@@H]1CN(c2nc(=O)n(C)c3c2nc(C)n3C[C@H]2OCC[C@@H]2O)[C@@H](C)CN1[C@@H](CC)c1ccc(C(F)(F)F)cc1` [Example 69, 6-((2S,5R)-5-Ethyl-2-methyl-4-((S)-1-(4-(trifluoromethyl)phenyl)propyl)piperazin-1-yl)-9-(((2R,3S)-3-hydroxytetrahydrofuran-2-yl)methyl)-3,8-dimethyl-3,9-dihydro-2H-purin-2-one]: the IC50 at DGKα and on DGKζ was at most 10 nM throughout.

Consider `Cc1nc2c(N3C[C@@H](C)N([C@@H](c4ccc5ccc(C(F)(F)F)cc5n4)C(C)C)C[C@@H]3C)nc(=O)n(C)c2n1C[C@@H]1CCCO1` [Example 49, 6-((2S,5R)-2,5-Dimethyl-4-((R)-2-methyl-1-(7-(trifluoromethyl)quinolin-2-yl)propyl)piperazin-1-yl)-3,8-dimethyl-9-(((S)-tetrahydrofuran-2-yl)methyl)-3,9-dihydro-2H-purin-2-one], for which the IC50 on DGKα and at DGKζ was at most 10 nM each time.

Consider `Cc1nc2c(N3C[C@@H](C)N(C(c4ccc(F)cc4)c4ccc(F)cc4)C[C@@H]3C)cc(=O)n(C)c2n1C[C@@H]1CCCO1` [Example 11, 7-((2S,5R)-4-(Bis(4-fluorophenyl)methyl)-2,5-dimethylpiperazin-1-yl)-2,4-dimethyl-3-(((S)-tetrahydrofuran-2-yl)methyl)-3,4-dihydro-5H-imidazo[4,5-b]pyridin-5-one], for which the half-inhibitory concentration (IC50) on DGKα and at DGKζ was at most 10 nM throughout.
